# Laboratory results taken from patent US8476314B2, “Substance with sedative effect” (Technology Commercialization Corp, priority 2002, dated 2013).
# “Also recorded” adds a separate entry of the source.
# Experiments:
# [1] = test system: animals; assay: continued daily administration to animals (sedative effect, dependency); type: in vivo
# Protocol: (§1) One of the preferred compounds of the invention is comenic acid, also known as 5-hydroxy-4-oxo-4H-pyran-2-carbon acid, as well as 5-hydroxy-gamma-pyrone-2-carboxylic acid. […] The effect is long lasting, up to 24 hours after administration. […] The acid can be administered in a number of pharmaceutically acceptable ways by mixing it with known and biologically acceptable carriers. Administration methods include all parenteral modes, including injection (intravenously, subcutaneously, intramuscularly or intraperitoneal), transdermally, transmucosally, etc. […] This duration compares quite favorably to a typical drug abuse treatment cycle of 3 to 6 months using substitution methods such as methadone.
# The effect from each administration lasts up to 24 hours.
# [2] = test system: tetrodotoxin-resistant (TTXr) Nav1.8 slow sodium channels; assay: patch-clamp experiments on dorsal root ganglion neurons; type: cell-based; details: for modulation of the activity of TTXr Nav1.8 slow sodium channels: patch-clamp, extracellular solution Na+ 65 mM, Ca2+ 2 mM, Mg2+ 2 mM
# [3] = solubility; type: physicochemical
# [4] = test system: animals; assay: treatment of narcotic dependency / withdrawal syndrome in animals; type: in vivo; details: pharmacologically effective dose
# Protocol: as §1
# It is intended that the selected gamma-pyrones as described in the proceeding section be administered as a substitute for the abused drug. Typically, this will involve administration of a therapeutically effective amount of a composition containing the compounds of the invention at least once every twenty-four hours. […] The preferred dosage range is from about 0.05 to about 0.5 mg per kilogram of body weight per day. Such daily dosage can be achieved in a single application, multiple applications or using a continuous release application.
# [5] = test system: Pliss limphosarcoma; assay: growth of transplanted Pliss limphosarcoma in rats; type: in vivo; details: 50 mg/kg i.p., once per day, 5 times per week, 10 injections; tumor volumes day 6, 9, 13, 16 and mortality vs control; Anoceptin 1% solution
# Protocol: Comenic acid (in medicinal form, referred to as “Anoceptin™”) was also tested on rats with transplanted tumors (Pliss limphosarcoma) to determine if it stimulated tumor growth (Effect of medicine Anoceptin on the growth of transplantable tumor in rats, State Oncology Institute, 2006, Saint-Petersburg, Russia). Pliss limphosarcoma was transplanted subcutaneously into 20 rats. Forty-eight hours after transplantation, the rats were randomly assigned into groups (10 rats in experimental group, and 10 in control group) and the injections were started. Both groups were injected i.p. (intraperitoneal) once per day, 5 times per week and given a total of 10 injections each. The experimental group was administered 50 mg/kg of comenic acid in each injection, while the control group was injected with 1.5 ml of physiological solution. Comenic acid was utilized in its medicinal form (“Anoceptin™”), a 1% solution with ions of proper moiety. For both groups, the size of the tumor was measured on day 6, 9, 13 and 16 of the experiment, and the volumes were calculated. […] The data was determined to be statistically significant, with p<0.05.
# [6] = test system: Ehrlich carcinoma; assay: growth of transplanted Ehrlich carcinoma in rats; type: in vivo; details: 50 mg/kg i.p., once per day, 5 times per week, 10 injections; tumor volumes day 13-44 and mortality vs control; Anoceptin 1% solution
# Protocol: Comenic acid (in medicinal form, referred to as “Anoceptin™”) was also tested on rats with transplanted tumors (Ehrlich carcinoma) to determine if it stimulated tumor growth (Effect of medicine Anoceptin on the growth of transplantable tumor, State Oncology Institute, 2006, Saint-Petersburg, Russia). Ehrlich carcinoma was transplanted subcutaneously into 20 rats. Forty-eight hours after transplantation, the rats were randomly assigned into groups (10 rats in experimental group, and 10 in control group) and the injections were started. Both groups were injected i.p. (intraperitoneal) once per day, 5 times per week and given a total of 10 injections each. The experimental group was administered 50 mg/kg of comenic acid in each injection, while each in the control group was injected with 0.125 ml of physiological solution. Comenic acid was utilized in its medicinal form (“Anoceptin™”), a 1% solution with ions of proper moiety. For both groups, the size of the tumor was measured on day 13, 16, 20, 23, 27, 30, 37 and 44 of the experiment, and the volumes were calculated. […] The data was determined to be statistically significant, with p<0.05.
# [7] = test system: opioid (or opioid-like) receptor; assay: patch-clamp experiments, receptor binding (naltrexone block, affinity order); type: cell-based; details: patch-clamp results, decreasing affinity
# From the text: The physiological effect on the Nav1.8 channel of the following closely related gamma-pyrone derivatives (see FIG. 1) was investigated: I) comenic acid (5-hydroxy-gamma-pyrone-2-carboxylic acid), II) meconic acid (3-hydroxy-gamma-pyrone-2,6-dicarboxylic acid, III) 5-methoxy-gamma-pyrone-2-carboxylic acid, IV) kojic acid (2-hydroxymethyl-5-hydroxy-gamma-pyrone) and V) chelidonic acid (gamma-pyrone-2,6-dicarboxylic acid). […] Clinical Pathophysiology (Russian), in press].
# Thus, according to the model of the mechanism of ligand receptor binding of said opioid (or opioid like) receptor, the prerequisites for gamma-pyrones receptor activity are 1) a carboxy group in position 2 of the pyranone ring, 2) a carbonyl group in position 4 of the pyranone ring, and 3) a substituent in position 5 which can participate in Ca^2+ chelation. […] Clinical Pathophysiology (Russian), in press]. Based on these observations, several conclusions concerning the potential effect of substituents in positions 3, 5 and 6 on the stability of ligand-receptor complex can be drawn. The presence of a carboxy group in position 6 (meconic acid, II) increases ligand affinity to the receptor as compared with comenic acid (I). It may be proposed that the carboxy group in position 6 is involved in additional interaction with one or several polar functional groups of the receptor by formation of intermolecular hydrogen or salt bonds. Based on this, introduction of a hydrophobic substituent in position 6 should reduce the affinity of gamma-pyrone derivatives to said opioid (or opioid-like) receptor. […] An increase in the size of the alkoxy group in position 5 will also lead to a further decrease or even total loss of physiological activity of the gamma-pyrone molecule. Bulky substituents in positions 3, 5 and 6 will decrease the affinity of gamma-pyrones to said receptor, since they will less readily be accommodated in the binding pocket.
# [8] = test system: male rats of Wistar line; assay: "open field" test, motor activity of rats (sedative effect); type: in vivo, rat; details: for Motor activity after the preparation's introduction (n): enteral, squares crossed within 5 minutes; for Lowering motor activity relative to the control (%): vs saline; for Lowering motor activity relative to the Valerian extract (%): vs same dose of Valerian extract
# Protocol: The sedative effect was measured by the change in motor activity of male rats of Wistar line with the mass of 0.20-0.23 kg in “the open field” test [Guiding and Method Materials in Experimental and Clinical Study of New Drugs. Part 2. M., 1980, pp. 126-133].
# Male rats were subjected to the enteral introduction of 0.5 ml of saline solution. Then, the animals were divided into two groups. The rats in the first group were tested in “the open field” 60 minutes after the solution's introduction. The rats in the second group were tested 90 minutes after the introduction. The test consisted of the rat being placed in the center of “the open field”, and then the number of squares of “the open field” that the rat crosses within 5 minutes is counted (an estimation of motor activity).
# Valerian extract was steamed until it became dry. Then, the dry remains were dissolved in saline in the required dosage (see table 1 and rated in mg/kg of a rat's body weight). The solution obtained was introduced into rats in the same way as for control. The testing of rats in “the open field” was also carried out as described for control.
# Comenic acid was dissolved in saline in the desired dosages (see table 1 below). The solution's pH was adjusted to equal 6.5-6.8 using concentrated NaOH solution. Comenic acid was introduced into the rats in the same way as in control. The testing of rats in “the open field” was carried out as described for control group as well.
# [9] = experiments repeated with the same rats
structure (smiles),measurement,setting,value
"O=C(O)c1cc(=O)c(O)co1 [Comenic acid, 5-hydroxy-gamma-pyrone-2-carboxylic acid]",drug dependency after continued daily use,[1]; 50 days of continued daily use,without causing drug dependency
same,duration of the effect after administration,[1]; each administration,up to 24 hours
same,modulation of the activity of TTXr Nav1.8 slow sodium channels,[2]; listed as I,modulated the activity; also recorded: shown to modulate the functioning
same,solubility in non-polar organic solvents,[3],practically insoluble
same,solubility in water and alcohol,[3],moderately water- and alcohol-soluble
same,treatment of narcotic dependency in animals,[4],effective treatment for the cure of narcotic dependency
same,effect on the growth of transplantable tumors of Pliss limphosarcoma,[5],no effect (no stimulation and no inhibition)
same,effect on the growth of transplantable tumors of Ehrlich carcinoma,[6],no effect (no stimulation and no inhibition)
same,order of affinity of the test molecule to the receptor,[7],II>I>III
same,Motor activity after the preparation's introduction (n),"[8]; 1 mg/kg of body weight, 60 min",43.9 ± 6.8 n
same,Motor activity after the preparation's introduction (n),"[8]; 1 mg/kg of body weight, 90 min",51.2 ± 8.3 n
same,Lowering motor activity relative to the control (%),"[8]; 1 mg/kg, 60 min",13%
same,Lowering motor activity relative to the Valerian extract (%),"[8]; 1 mg/kg, 60 min",19%
same,Lowering motor activity relative to the control (%),"[8]; 1 mg/kg, 90 min",−8%
same,Lowering motor activity relative to the Valerian extract (%),"[8]; 1 mg/kg, 90 min",−21%
same,Motor activity after the preparation's introduction (n),"[8]; 10 mg/kg of body weight, 60 min",37.6 ± 5.9 n
same,Motor activity after the preparation's introduction (n),"[8]; 10 mg/kg of body weight, 90 min",41.6 ± 6.8 n
same,Lowering motor activity relative to the control (%),"[8]; 10 mg/kg, 60 min",25%
same,Lowering motor activity relative to the Valerian extract (%),"[8]; 10 mg/kg, 60 min",22%
same,Lowering motor activity relative to the control (%),"[8]; 10 mg/kg, 90 min",12.5%
same,Lowering motor activity relative to the Valerian extract (%),"[8]; 10 mg/kg, 90 min",−9%
same,Motor activity after the preparation's introduction (n),"[8]; 50 mg/kg of body weight, 60 min",18.7 ± 3.3 n
same,Motor activity after the preparation's introduction (n),"[8]; 50 mg/kg of body weight, 90 min",15.2 ± 3.1 n
same,Lowering motor activity relative to the control (%),"[8]; 50 mg/kg, 60 min",63%
same,Lowering motor activity relative to the Valerian extract (%),"[8]; 50 mg/kg, 60 min",52%
same,Lowering motor activity relative to the control (%),"[8]; 50 mg/kg, 90 min",68%
same,Lowering motor activity relative to the Valerian extract (%),"[8]; 50 mg/kg, 90 min",52%
same,Motor activity after the preparation's introduction (n),"[8]; 100 mg/kg of body weight, 60 min",13.4 ± 4.8 n
same,Motor activity after the preparation's introduction (n),"[8]; 100 mg/kg of body weight, 90 min",10.3 ± 2.8 n
same,Lowering motor activity relative to the control (%),"[8]; 100 mg/kg, 60 min",73%
same,Lowering motor activity relative to the Valerian extract (%),"[8]; 100 mg/kg, 60 min",67%
same,Lowering motor activity relative to the control (%),"[8]; 100 mg/kg, 90 min",78%
same,Lowering motor activity relative to the Valerian extract (%),"[8]; 100 mg/kg, 90 min",53%
same,development of tolerance,[8]; [9],no development of tolerance
same,drug dependency,[8]; [9],no indication of drug dependency
same,other side effects of the administration,[8]; [9],no other side effects
same,sedative effect compared with that of valerian extract,"[8]; rats, open field, 50 and 100 mg/kg",twice
"O=C(O)c1cc(=O)c(O)c(C(=O)O)o1 [II, 3-hydroxy-gamma-pyrone-2,6-dicarboxylic acid]",modulation of the activity of TTXr Nav1.8 slow sodium channels,[2],modulated the activity
same,order of affinity of the test molecule to the receptor,[7],II>I>III
"COc1coc(C(=O)O)cc1=O [III, 5-methoxy-gamma-pyrone-2-carboxylic acid]",effect on the Nav1.8 slow sodium channel compared with comenic acid (I),"[2]; patch clamp, dorsal root ganglion neurons",decrease in activity
same,modulation of the activity of TTXr Nav1.8 slow sodium channels,[2],modulated the activity; also recorded: shown to modulate the functioning
same,solubility in non-polar organic solvents,[3],practically insoluble
same,solubility in water and alcohol,[3],moderately water- and alcohol-soluble
same,order of affinity of the test molecule to the receptor,[7],II>I>III
"O=c1cc(CO)occ1O [IV, 2-hydroxymethyl-5-hydroxy-gamma-pyrone, reference compound]",modulation of the activity of TTXr Nav1.8 slow sodium channels,[2],did not exhibit such effect; also recorded: did not influence the functioning
"O=C(O)c1cc(=O)cc(C(=O)O)o1 [V, gamma-pyrone-2,6-dicarboxylic acid, reference compound]",modulation of the activity of TTXr Nav1.8 slow sodium channels,[2],did not exhibit such effect; also recorded: did not influence the functioning
